Assay results published in US9550739B2, “Molecules having certain pesticidal utilities, and intermediates, compositions, and processes related thereto” (priority 2014, dated 2017).
Where two headings read alike, the source gives them in different places.

Tests used:
Assay type in all cases: in vivo
[1] = system: Cabbage Looper (Trichoplusia ni, TRIPNI) ("CL"); test: Bioassays on Cabbage Looper (CL), 128-well diet tray assay; settings: Trichoplusia ni, 168 h, read-out: CL % Control (or Mortality) rating
Experimental: (§1) Certain molecules disclosed in this document were tested against BAW and CEW using procedures described in the following examples. In the reporting of the results, the “BAW & CL Rating Table” was used (See Table Section).
Bioassays on CL were conducted using a 128-well diet tray assay. one to five second instar CL larvae were placed in each well (3 mL) of the diet tray that had been previously filled with 1 mL of artificial diet to which 50 μg/cm^2 of the test compound (dissolved in 50 μL of 90:10 acetone-water mixture) had been applied (to each of eight wells) and then allowed to dry. Trays were covered with a clear self-adhesive cover and held at 25° C., 14:10 light-dark for five to seven days. Percent mortality was recorded for the larvae in each well; activity in the eight wells was then averaged. The results are indicated in the table entitled “Table ABC: Biological Results” (See Table Section).

[2] = system: Yellow Fever Mosquito (Aedes aegypti, AEDSAE) ("YFM"); settings: about 1 day-old larvae, 4000 ppm master solution diluted, 3 days, room temperature
Experimental: Certain molecules disclosed in this document were tested against YFM using procedures described in the following paragraph. In the reporting of the results, the “YFM Rating Table” was used (See Table Section).
Master plates containing 400 μg of a molecule dissolved in 100 μL of dimethyl sulfoxide (DMSO) (equivalent to a 4000 ppm solution) are used. A master plate of assembled molecules contains 15 μL per well. To this plate, 135 μL of a 90:10 water:acetone mixture is added to each well. A robot (Biomek® NXP Laboratory Automation Workstation) is programmed to dispense 15 μL aspirations from the master plate into an empty 96-well shallow plate (“daughter” plate). There are 6 reps (“daughter” plates) created per master. The created daughter plates are then immediately infested with YFM larvae.
The day before plates are to be treated, mosquito eggs are placed in Millipore water containing liver powder to begin hatching (4 g. into 400 mL). After the daughter plates are created using the robot, they are infested with 220 μL of the liver powder/larval mosquito mixture (about 1 day-old larvae). After plates are infested with mosquito larvae, a non-evaporative lid is used to cover the plate to reduce drying. Plates are held at room temperature for 3 days prior to grading. After 3 days, each well is observed and scored based on mortality.

[3] = system: Beet Armyworm (Spodoptera exigua, LAPHEG) ("BAW"); test: Bioassays on Beet Armyworm (BAW), 128-well diet tray assay; settings: Spodoptera exigua, 168 h, read-out: BAW % Control (or Mortality) rating
Experimental: as §1
Bioassays on BAW were conducted using a 128-well diet tray assay. one to five second instar BAW larvae were placed in each well (3 mL) of the diet tray that had been previously filled with 1 mL of artificial diet to which 50 μg/cm^2 of the test compound (dissolved in 50 μL of 90:10 acetone-water mixture) had been applied (to each of eight wells) and then allowed to dry. Trays were covered with a clear self-adhesive cover and held at 25° C., 14:10 light-dark for five to seven days. Percent mortality was recorded for the larvae in each well; activity in the eight wells was then averaged. The results are indicated in the table entitled “Table ABC: Biological Results” (See Table Section).

[4] = second instar BAW larvae, 50 μg/cm^2 on artificial diet, five to seven days, 25° C.

Structure (SMILES)	mortality at 50 µg/cm2 [1]	YFM % Control (or Mortality) rating [2]	mortality at 50 µg/cm2 [3]	mortality at 50 µg/cm2 [3, 4]
O=C(Nc1ccc(-c2ncn(-c3ccc(OC(F)(F)F)cc3)n2)cc1)c1cc(F)cc(-c2ccccc2)c1 [F25, 5-Fluoro-N-(4-(1-(4-(trifluoromethoxy)phenyl)-1H-1,2,4-triazol-3-yl)phenyl)-[1,1′-biphenyl]-3-carboxamide]	50 to 100%	D (No activity noticed in this bioassay)	50 to 100%	–
COc1ccccc1-c1cc(C(=O)Nc2ccc(-c3ncn(-c4ccc(OC(F)(F)C(F)(F)F)cc4)n3)cc2)ccc1F [F7, 6-Fluoro-2′-methoxy-N-(4-(1-(4-(perfluoroethoxy)phenyl)-1H-1,2,4-triazol-3-yl)phenyl)-[1,1′-biphenyl]-3-carboxamide]	50 to 100%	D (No activity noticed in this bioassay)	–	50 to 100%
O=C(Nc1ccc(-c2ncn(-c3ccc(OC(F)(F)C(F)(F)F)cc3)n2)cc1)c1ccc(F)c(-c2ccccc2)c1 [F40, 6-Fluoro-N-(4-(1-(4-(perfluoroethoxy)phenyl)-1H-1,2,4-triazol-3-yl)phenyl)-[1,1′-biphenyl]-3-carboxamide]	50 to 100%	D (No activity noticed in this bioassay)	–	0%
O=C(NCCc1ccc(-c2ncn(-c3ccc(OC(F)(F)F)cc3)n2)cc1)c1ccc(F)c(-c2ccccc2)c1 [F51, 6-Fluoro-N-(4-(1-(4-(trifluoromethoxy)phenyl)-1H-1,2,4-triazol-3-yl)phenethyl)-[1,1′-biphenyl]-3-carboxamide]	0%	D (No activity noticed in this bioassay)	–	50 to 100%
COc1ccccc1-c1cccc(C(=O)Nc2ccc(-c3ncn(-c4ccc(OC(F)(F)F)cc4)n3)cc2)c1 [F22, 2′-Methoxy-N-(4-(1-(4-(trifluoromethoxy)phenyl)-1H-1,2,4-triazol-3-yl)phenyl)-[1,1′-biphenyl]-3-carboxamide]	50 to 100%	A (80-100)	–	50 to 100%
O=C(NCc1ccc(-c2ncn(-c3ccc(OC(F)(F)F)cc3)n2)cc1)c1cccc(-c2ccccc2)c1 [F57, N-(4-(1-(4-(trifluoromethoxy)phenyl)-1H-1,2,4-triazol-3-yl)benzyl)-[1,1′-biphenyl]-3-carboxamide]	50 to 100%	D (No activity noticed in this bioassay)	–	0%
O=C(Nc1ccc(-c2ncn(-c3ccc(OC(F)(F)F)cc3)n2)cc1)c1cc(-c2ccccc2)ccc1F [F48, 4-Fluoro-N-(4-(1-(4-(trifluoromethoxy)phenyl)-1H-1,2,4-triazol-3-yl)phenyl)-[1,1′-biphenyl]-3-carboxamide]	50 to 100%	D (No activity noticed in this bioassay)	–	0%
O=C(Nc1ccc(-c2ncn(-c3ccc(C(F)(F)F)cc3)n2)cc1)c1ccccn1 [F68, N-(4-(1-(4-(trifluoromethyl)phenyl)-1H-1,2,4-triazol-3-yl)phenyl)picolinamide]	0%	D (No activity noticed in this bioassay)	–	0 to 50%
COc1ccccc1-c1cc(C(=O)NCCc2ccc(-c3ncn(-c4ccc(OC(F)(F)F)cc4)n3)cc2)ccc1F [F54, 6-Fluoro-2′-methoxy-N-(4-(1-(4-(trifluoromethoxy)phenyl)-1H-1,2,4-triazol-3-yl)phenethyl)-[1,1′-biphenyl]-3-carboxamide]	50 to 100%	–	–	50 to 100%
Cc1ccccc1-c1cc(C(=O)Nc2ccc(-c3ncn(-c4ccc(C(F)(F)F)cc4)n3)cc2)ccc1F [F58, 6-Fluoro-2′-methyl-N-(4-(1-(4-(trifluoromethyl)phenyl)-1H-1,2,4-triazol-3-yl)phenyl)-[1,1′-biphenyl]-3-carboxamide]	50 to 100%	D (No activity noticed in this bioassay)	–	50 to 100%
CC(=O)c1ccccc1-c1cccc(C(=O)Nc2ccc(-c3ncn(-c4ccc(OC(F)(F)C(F)(F)F)cc4)n3)cc2)c1 [F9, 2′-Acetyl-N-(4-(1-(4-(perfluoroethoxy)phenyl)-1H-1,2,4-triazol-3-yl)phenyl)-[1,1′-biphenyl]-3-carboxamide]	50 to 100%	A (80-100)	–	50 to 100%
O=C(Nc1ccc(-c2ncn(-c3ccc(OC(F)(F)F)cc3)n2)cc1)c1ccc(F)c(-c2ccccc2)c1 [F11, 6-Fluoro-N-(4-(1-(4-(trifluoromethoxy)phenyl)-1H-1,2,4-triazol-3-yl)phenyl)-[1,1′-biphenyl]-3-carboxamide]	50 to 100%	D (No activity noticed in this bioassay)	–	50 to 100%
COc1ccccc1-c1cc(C(=O)Nc2ccc(-c3ncn(-c4ccc(OC(F)(F)F)cc4)n3)cc2)ccc1F [F44, 6-Fluoro-2′-methoxy-N-(4-(1-(4-(trifluoromethoxy)phenyl)-1H-1,2,4-triazol-3-yl)phenyl)-[1,1′-biphenyl]-3-carboxamide]	50 to 100%	B (More than 0-Less than 80)	–	50 to 100%
CC(C)Oc1ccc(-n2cnc(-c3ccc(NC(=O)c4ccc(F)c(-c5ccccc5)c4)cc3)n2)cc1 [F16, 6-Fluoro-N-(4-(1-(4-isopropoxyphenyl)-1H-1,2,4-triazol-3-yl)phenyl)-[1,1′-biphenyl]-3-carboxamide]	50 to 100%	B (More than 0-Less than 80)	–	0%
COc1ccc(C(=O)Nc2ccc(-c3ncn(-c4ccc(OC(F)(F)F)cc4)n3)cc2)cc1-c1ccccc1 [F37, 6-Methoxy-N-(4-(1-(4-(trifluoromethoxy)phenyl)-1H-1,2,4-triazol-3-yl)phenyl)-[1,1′-biphenyl]-3-carboxamide]	50 to 100%	A (80-100)	–	50 to 100%
COc1ccccc1-c1cc(C(=O)N(CC2CC2)c2ccc(-c3ncn(-c4ccc(OC(F)(F)F)cc4)n3)cc2)ccc1F [F66, N-(cyclopropylmethyl)-6-fluoro-2′-methoxy-N-(4-(1-(4-(trifluoromethoxy)phenyl)-1H-1,2,4-triazol-3-yl)phenyl)-[1,1′-biphenyl]-3-carboxamide]	50 to 100%	D (No activity noticed in this bioassay)	–	50 to 100%
Cc1ccccc1-c1cc(C(=O)NCCc2ccc(-c3ncn(-c4ccc(OC(F)(F)F)cc4)n3)cc2)ccc1F [F53, 6-Fluoro-2′-methyl-N-(4-(1-(4-(trifluoromethoxy)phenyl)-1H-1,2,4-triazol-3-yl)phenethyl)-[1,1′-biphenyl]-3-carboxamide]	50 to 100%	A (80-100)	–	50 to 100%
CC(=O)c1ccccc1-c1cccc(C(=O)Nc2ccc(-c3ncn(-c4ccc(OC(F)(F)F)cc4)n3)cc2)c1 [F41, 2′-Acetyl-N-(4-(1-(4-(trifluoromethoxy)phenyl)-1H-1,2,4-triazol-3-yl)phenyl)-[1,1′-biphenyl]-3-carboxamide]	50 to 100%	A (80-100)	–	50 to 100%
O=C(Nc1ccc(-c2ncn(-c3ccc(OC(F)(F)F)cc3)n2)cc1)c1cccc(-c2ccc(Cl)cc2Cl)n1 [F18, 6-(2,4-Dichlorophenyl)-N-(4-(1-(4-(trifluoromethoxy)phenyl)-1H-1,2,4-triazol-3-yl)phenyl)picolinamide]	0%	D (No activity noticed in this bioassay)	–	0%
O=C(Nc1ccc(-c2ncn(-c3ccc(C(F)(F)F)cc3)n2)cc1)c1ccc(F)c(-c2ccccc2)c1 [F62, 6-Fluoro-N-(4-(1-(4-(trifluoromethyl)phenyl)-1H-1,2,4-triazol-3-yl)phenyl)-[1,1′-biphenyl]-3-carboxamide]	50 to 100%	B (More than 0-Less than 80)	–	50 to 100%
